Literature values in patent US11529357B2, “Injectable carbamazepine composition essentially free of 10-bromo-carbamazepine” (H. Lundbeck A/S, priority 2019, dated 2022).

**Q.** For NC(=O)N1c2ccccc2C=Cc2ccccc21 [carbamazepine, 5H-dibenzo[b,f]azepine-5-carboxamide], which average oral bioavailability is on record?
**A.** The average oral bioavailability was 65-70%.
